ChEMBL document CHEMBL1144459, “Discovery of potent thiosemicarbazone inhibitors of rhodesain and cruzain” (Bioorg Med Chem Lett, 2005)

Columns and labels:
[1] = tested on: Trypanosoma brucei rhodesiense; assay: Effective dose to inhibit proliferation of Trypanosoma brucei rhodesiense in cell assay; format: functional; conditions: read-out: ED50 (the source's name)
Cruzipain = Cruzipain (Trypanosoma cruzi, UniProt P25779); assay: Inhibitory concentration against cruzain of Trypanosoma cruzi
Falcipain 2 = target: T1, Falcipain 2 (Plasmodium falciparum, UniProt Q9N6S8); assay: Inhibitory concentration against falcipain-2 of Plasmodium falciparum W2
T1 sequence (Q9N6S8 whole entry): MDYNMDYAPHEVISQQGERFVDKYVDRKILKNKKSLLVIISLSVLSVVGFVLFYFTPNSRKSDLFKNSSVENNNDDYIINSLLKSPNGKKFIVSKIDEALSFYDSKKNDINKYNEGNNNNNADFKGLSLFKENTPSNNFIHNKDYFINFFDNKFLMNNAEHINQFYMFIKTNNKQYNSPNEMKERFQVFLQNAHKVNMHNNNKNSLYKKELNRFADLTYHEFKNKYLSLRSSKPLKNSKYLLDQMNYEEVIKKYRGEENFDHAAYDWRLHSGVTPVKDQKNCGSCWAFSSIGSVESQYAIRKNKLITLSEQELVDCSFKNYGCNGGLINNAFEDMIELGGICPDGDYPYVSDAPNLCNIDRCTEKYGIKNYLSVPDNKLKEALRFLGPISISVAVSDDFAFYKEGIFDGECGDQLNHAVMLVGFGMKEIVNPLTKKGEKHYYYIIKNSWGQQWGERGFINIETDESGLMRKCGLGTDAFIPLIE

Trypanosoma cruzi = assay: Effective dose to inhibit proliferation of Trypanosoma cruzi in cell assay; format: functional; conditions: read-out: ED50 (the source's name)
Rhodesain = Rhodesain (Trypanosoma brucei rhodesiense, UniProt Q95PM0); assay: Inhibitory concentration against rhodesain of Trypanosoma brucei rhodesience
Plasmodium falciparum [2] = assay: Effective dose against Plasmodium falciparum W2; Not active; format: functional; conditions: read-out: ED50 (the source's name)
Plasmodium falciparum [3] = assay: Effective dose against Plasmodium falciparum W2; format: functional; conditions: read-out: ED50 (the source's name)

Chain of Rhodesain (Q95PM0 whole entry): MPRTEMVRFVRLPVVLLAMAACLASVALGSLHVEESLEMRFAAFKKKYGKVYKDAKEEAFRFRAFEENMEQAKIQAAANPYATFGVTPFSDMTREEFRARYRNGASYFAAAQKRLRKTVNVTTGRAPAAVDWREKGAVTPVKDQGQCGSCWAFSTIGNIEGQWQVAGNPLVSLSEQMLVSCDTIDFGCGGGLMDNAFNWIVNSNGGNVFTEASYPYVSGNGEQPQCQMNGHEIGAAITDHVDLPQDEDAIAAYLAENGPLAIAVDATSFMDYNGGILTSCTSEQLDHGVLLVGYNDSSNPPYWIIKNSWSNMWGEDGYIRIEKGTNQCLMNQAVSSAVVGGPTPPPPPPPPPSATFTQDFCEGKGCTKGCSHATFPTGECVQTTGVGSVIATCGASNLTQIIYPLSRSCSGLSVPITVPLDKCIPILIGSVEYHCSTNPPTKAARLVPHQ
Chain of Cruzipain (P25779 whole entry): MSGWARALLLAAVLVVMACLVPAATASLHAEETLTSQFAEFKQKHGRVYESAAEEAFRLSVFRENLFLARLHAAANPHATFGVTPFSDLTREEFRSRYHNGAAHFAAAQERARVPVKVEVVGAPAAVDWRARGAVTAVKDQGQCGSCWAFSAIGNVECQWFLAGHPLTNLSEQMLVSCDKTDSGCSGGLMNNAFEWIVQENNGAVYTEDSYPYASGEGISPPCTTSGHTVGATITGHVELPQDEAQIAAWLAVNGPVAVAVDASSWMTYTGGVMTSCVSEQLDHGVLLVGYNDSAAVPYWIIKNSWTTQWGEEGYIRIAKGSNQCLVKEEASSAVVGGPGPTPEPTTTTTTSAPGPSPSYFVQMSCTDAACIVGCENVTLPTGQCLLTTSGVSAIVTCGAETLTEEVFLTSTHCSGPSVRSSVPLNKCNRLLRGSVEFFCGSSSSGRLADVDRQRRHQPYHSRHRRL

SMILES	EC50 [1]	IC50 (Cruzipain)	IC50 (Falcipain 2)	EC50 (Trypanosoma cruzi)	IC50 (Rhodesain)	EC50 (Plasmodium falciparum [2])	EC50 (Plasmodium falciparum [3])
CCCC/C(=N\NC(N)=S)c1ccc(Cl)c(Cl)c1	130 nM	19 nM	620 nM	3000 nM	60 nM		
N/C(S)=N/N=C(\C=C\c1ccccc1)c1ccc(Cl)c(Cl)c1	72 nM	30 nM	470 nM		38 nM	9000 nM	
N/C(S)=N/N=C(/c1ccc(Cl)c(Cl)c1)C1CCCCC1		3000 nM	14000 nM		1100 nM		
N/C(S)=N/N=C(\COc1ccccc1)c1ccc(Cl)c(Cl)c1	1500 nM	30 nM	375 nM		70 nM		
Cc1ccc(/C(=N\N=C(\N)S)c2ccc(Cl)c(Cl)c2)cc1		40 nM	1800 nM		38 nM		
N/C(S)=N/N=C(\CCc1ccccc1)c1ccc(Cl)c(Cl)c1	69 nM	40 nM	2600 nM		90 nM		
N/C(S)=N/N=C(/c1ccc(Cl)c(Cl)c1)C1CC1c1ccccc1 (configuration not stated)	570 nM	30 nM	640 nM		60 nM		
N/C(S)=N/N=C(\Cc1ccccc1)c1ccc(Cl)c(Cl)c1		80 nM	8400 nM		80 nM		19000 nM
CC/C(=N\NC(N)=S)c1cccc(Br)c1					230 nM		
CC(C)(C)/C(=N\N=C(\N)S)c1ccc(Cl)c(Cl)c1		> 10000 nM			3330 nM		
CC/C(=N\N=C(\N)S)c1ccc(Cl)c(Cl)c1		30 nM			110 nM		
